Measurements published in patent publication US20110053770A1, “SUBSTITUTED AMINOTHIAZOLES AND THEIR USE AS FUNGICIDES” (BAYER CROPSCIENCE AG, priority 2009, published 2011).
Where two headings read alike, the source gives them in different places. Marks after values point to notes of the source that are not given here.

Experiment: logP by HPLC on reversed-phase columns (C 18), EEC directive 79/831 Annex V.A8
Assay type: physicochemical
Conditions: for chromatographic logP: reversed-phase HPLC column (C 18)
Protocol: Calibration was carried out using unbranched alkan-2-ones (having from 3 to 16 carbon atoms) with known logP values (the logP values were determined by the retention times using linear interpolation between two successive alkanones).

[1] = LC-MS, acidic range, pH 2.7, 0.1% aqueous formic acid and acetonitrile
[2] = LC-MS, neutral range, pH 7.8, 0.001 molar aqueous ammonium bicarbonate and acetonitrile
[3] = acidic range, pH 2.3, 0.1% aqueous phosphoric acid and acetonitrile

Row | log P (**) [1] | log P (***) [2] | log P (*) [3] | chromatographic logP (LC-MS, acidic range, pH 2.7, 0.1% aqueous formic acid and acetonitrile, read-out: log P (**)) | chromatographic logP (LC-MS, neutral range, pH 7.8, 0.001 molar aqueous ammonium bicarbonate and acetonitrile, read-out: log P (***)) | chromatographic logP (acidic range, pH 2.3, 0.1% aqueous phosphoric acid and acetonitrile, read-out: log P (*)) | Structure (SMILES)
1 | 2.66 | 4.9 | – | – | – | – | Cc1ccc(Oc2ccccc2-c2csc(N=C3CCCCN3)n2)c(C)c1 [compound 1, 4-[2-(2,4-dimethylphenoxy)phenyl]-N-[(2E/Z)-piperidin-2-ylidene]-1,3-thiazole-2-amine]
2 | 1.7** | – | – | – | – | – | Clc1ccc(-c2csc(N=C3CCCCN3)n2)cc1 [compound 2, 4-(4-chlorophenyl)-N-[(2E/Z)-piperidin-2-ylidene]-1,3-thiazole-2-amine]
3 | 1.67** | – | – | – | – | – | Brc1ccc(-c2csc(N=C3CCCCN3)n2)cc1 [compound 3, 4-(4-bromophenyl)-N-[(2E/Z)-piperidin-2-ylidene]-1,3-thiazole-2-amine]
4 | 1.8** | – | – | – | – | – | Clc1ccc(-c2csc(N=C3CCCCN3)n2)c(Cl)c1 [compound 4, 4-(2,4-dichlorophenyl)-N-[(2E/Z)-piperidin-2-ylidene]-1,3-thiazole-2-amine]
5 | 2.17 | 3.97 | – | – | – | – | c1ccc(Oc2ccc(-c3csc(N=C4CCCCN4)n3)cc2)cc1 [compound 5, 4-(4-phenoxyphenyl)-N-[(2E/Z)-piperidin-2-ylidene]-1,3-thiazole-2-amine]
6 | 2.23 | 4.36 | – | – | – | – | FC(F)(F)c1cc(-c2csc(N=C3CCCCN3)n2)cc(C(F)(F)F)c1 [compound 6, 4-[3,5-bis(trifluoromethyl)phenyl]-N-[(2E/Z)-piperidin-2-ylidene]-1,3-thiazole-2-amine]
7 | 2.11 | 3.9 | 2.11 | – | – | – | Fc1ccc(Oc2ccccc2-c2csc(N=C3CCCCN3)n2)c(F)c1 [compound 7, 4-[2-(2,4-difluorophenoxy)phenyl]-N-[(2E/Z)-piperidin-2-ylidene]-1,3-thiazole-2-amine]
8 | 1.94 | 3.72 | – | – | – | – | FC(F)(F)c1cccc(-c2csc(N=C3CCCCN3)n2)c1Cl [compound 8, 4-[2-chloro-3-(trifluoromethyl)phenyl]-N-[(2E/Z)-piperidin-2-yl-idene]-1,3-thiazole-2-amine]
9 | – | 3.95 | 2.12 | – | – | – | Fc1ccc(Oc2ccc(-c3csc(N=C4CCCCN4)n3)cc2)c(F)c1 [compound 9, 4-[4-(2,4-difluorophenoxy)phenyl]-N-[(2E/Z)-piperidin-2-ylidene]-1,3-thiazole-2-amine]
10 | 2.09 | 3.91 | 2.07 | – | – | – | c1ccc(Oc2ccccc2-c2csc(N=C3CCCCN3)n2)cc1 [compound 10, 4-(2-phenoxyphenyl)-N-[(2E/Z)-piperidin-2-ylidene]-1,3-thiazole-2-amine]
11 | 2.42 | 4.84 | 2.42 | – | – | – | Clc1ccc(Oc2ccccc2-c2csc(N=C3CCCCN3)n2)c(Cl)c1 [compound 11, 4-[2-(2,4-dichlorophenoxy)phenyl]N-[(2E/Z)-piperidin-2-ylidene]-1,3-thiazole-2-amine]
12 | 2.92 | 5.96 | 2.92 | – | – | – | CC(C)(C)c1cc(Oc2ccccc2-c2csc(N=C3CCCCN3)n2)ccc1Cl [compound 12, 4-[2-(3-tert-butyl-4-chlorophenoxy)phenyl]-N-[(2E/Z)-piperidin-2-ylidene]-1,3-thiazole-2-amine]
13 | 2.58 | 4.9 | 2.58 | – | – | – | FC(F)(F)c1cc(Oc2ccccc2-c2csc(N=C3CCCCN3)n2)ccc1Cl [compound 14, 4-{2-[4-chloro-3-(trifluoromethyl)phenoxy]phenyl}-N-[(2E/Z)-piperidin-2-ylidene]-1,3-thiazole-2-amine]
14 | 1.77 | 3.54 | 1.77 | – | – | – | FC(F)(F)Oc1ccccc1-c1csc(N=C2CCCCN2)n1 [compound 15, N-[(2E/Z)-piperidin-2-ylidene]-4-[2-(trifluoromethoxy)phenyl]-1,3-thiazole-2-amine]
15 | 4.36 | 4.32 | 4.36 | – | – | – | CC(=O)N1CCCCC1=Nc1nc(-c2ccccc2Oc2ccc(F)cc2F)cs1 [compound 16, 1-[(2E/Z)-2-({4-[2-(2,4-difluorophenoxy)phenyl]-1,3-thiazol-2-yl}imino)piperidin-1-yl]ethanone]
16 | 4.41 | 4.39 | 4.41 | – | – | – | CC(=O)N1CCCCC1=Nc1nc(-c2ccccc2Oc2ccccc2)cs1 [compound 17, 1-[(2E/Z)-2-{[4-(2-phenoxyphenyl)-1,3-thiazol-2-yl]imino}piperidin-1-yl]ethanone]
17 | 1.64 | 3.12 | 1.64 | – | – | – | Fc1ccc(-c2csc(N=C3CCCCN3)n2)cc1F [compound 18, 4-(3,4-difluorophenyl)-N-[(2E/Z)-piperidin-2-ylidene]-1,3-thiazole-2-amine]

Row | log P (**) [1] | log P (***) [2] | log P (*) [3] | chromatographic logP (LC-MS, acidic range, pH 2.7, 0.1% aqueous formic acid and acetonitrile, read-out: log P (**)) | chromatographic logP (LC-MS, neutral range, pH 7.8, 0.001 molar aqueous ammonium bicarbonate and acetonitrile, read-out: log P (***)) | chromatographic logP (acidic range, pH 2.3, 0.1% aqueous phosphoric acid and acetonitrile, read-out: log P (*)) | Structure (SMILES)
18 | 1.58 | 3.16 | 1.58 | – | – | – | Fc1ccc(F)c(-c2csc(N=C3CCCCN3)n2)c1 [compound 19, 4-(2,5-difluorophenyl)-N-[(2E/Z)-piperidin-2-ylidene]-1,3-thiazole-2-amine]
19 | 1.63 | 3.19 | 1.63 | – | – | – | Clc1ccccc1-c1csc(N=C2CCCCN2)n1 [compound 20, 4-(2-chlorophenyl)-N-[(2E/Z)-piperidin-2-ylidene]-1,3-thiazole-2-amine]
20 | 1.76 | 3.25 | 1.76 | – | – | – | FC(F)(F)c1ccccc1-c1csc(N=C2CCCCN2)n1 [compound 21, N-[(2E/Z)-piperidin-2-ylidene]-4-[2-(trifluoromethyl)phenyl]-1,3-thiazole-2-amine]
21 | 1.83 | 3.45 | 1.83 | – | – | – | C=CCOc1ccccc1-c1csc(N=C2CCCCN2)n1 [compound 22, N-[(2E/Z)-piperidin-2-ylidene]-4-[2-(prop-2-en-1-yloxy)phenyl]-1,3-thiazole-2-amine]
22 | 1.77 | 3.35 | 1.77 | – | – | – | CCOc1ccccc1-c1csc(N=C2CCCCN2)n1 [compound 23, 4-(2-ethoxyphenyl)-N-[(2E/Z)-piperidin-2-ylidene]-1,3-thiazole-2-amine]
23 | 1.81 | 3.72 | 1.81 | – | – | – | Clc1cccc(-c2csc(N=C3CCCCN3)n2)c1Cl [compound 24, 4-(2,3-dichlorophenyl)-N-[(2E/Z)-piperidin-2-ylidene]-1,3-thiazole-2-amine]
24 | 1.58 | 3.21 | 1.58 | – | – | – | Fc1cccc(-c2csc(N=C3CCCCN3)n2)c1F [compound 25, 4-(2,3-difluorophenyl)-N-[(2E/Z)-piperidin-2-ylidene]-1,3-thiazole-2-amine]
25 | 1.84 | 3.78 | 1.84 | – | – | – | Fc1c(-c2csc(N=C3CCCCN3)n2)cccc1C(F)(F)F [compound 26, 4-[2-fluoro-3-(trifluoromethyl)phenyl]-N-[(2E/Z)-piperidin-2-ylidene]-1,3-thiazole-2-amine]
26 | 1.35 | 2.36 | 1.35 | – | – | – | COc1ccc(-c2csc(N=C3CCCCN3)n2)cc1OC [compound 27, 4-(3,4-dimethoxyphenyl)-N-[(2E/Z)-piperidin-2-ylidene]-1,3-thiazole-2-amine]
27 | 1.41 | 2.65 | 1.41 | – | – | – | c1cc2c(cc1-c1csc(N=C3CCCCN3)n1)OCO2 [compound 28, 4-(1,3-benzodioxol-5-yl)-N-[(2E/Z)-piperidin-2-ylidene]-1,3-thiazole-2-amine]
28 | 1.57 | 3.22 | 1.57 | – | – | – | Fc1cc(F)cc(-c2csc(N=C3CCCCN3)n2)c1 [compound 29, 4-(3,5-difluorophenyl)-N-[(2E/Z)-piperidin-2-ylidene]-1,3-thiazole-2-amine]
29 | 1.76 | 3.45 | 1.76 | – | – | – | Fc1ccc(-c2csc(N=C3CCCCN3)n2)cc1Cl [compound 30, 4-(3-chloro-4-fluorophenyl)-N-[(2E/Z)-piperidin-2-ylidene]-1,3-thiazole-2-amine]
30 | 1.84 | 3.72 | 1.84 | – | – | – | Cc1sc(N=C2CCCCN2)nc1-c1ccc(Cl)cc1 [compound 31, 4-(4-chlorophenyl)-5-methyl-N-[(2E/Z)-piperidin-2-ylidene]-1,3-thiazole-2-amine]
31 | 2.2 | 4.35 | 2.2 | – | – | – | CC(C)(C)c1ccc(-c2csc(N=C3CCCCN3)n2)cc1 [compound 32, 4-(4-tert-butylphenyl)-N-[(2E/Z)-piperidin-2-ylidene]-1,3-thiazole-2-amine]
32 | 2.71 | 5.03 | 2.71 | – | – | – | CCOc1ccccc1-c1csc(N=C2CCCCN2C(C)=O)n1 [compound 33, 1-[(2E/Z)-2-{[4-(2-ethoxyphenyl)-1,3-thiazol-2-yl]imino}piperidin-1-yl]ethanone]
33 | 3.78**; 3.78***; 3.78* | 3.78**; 3.78***; 3.78* | 3.78**; 3.78***; 3.78* | – | – | – | CC(=O)N1CCCCC1=Nc1nc(-c2ccc(Cl)cc2)cs1 [compound 34, 1-[(2E/Z)-2-{[4-(4-chlorophenyl)-1,3-thiazol-2-yl]imino}piperidin-1-yl]ethanone]
34 | – | – | – | 4.33 | 4.33 | 4.33 | CC(=O)N1CCCCC1=Nc1nc(-c2ccc(Cl)cc2Cl)cs1 [compound 35, 1-[(2E/Z)-2-{[4-(2,4-dichlorophenyl)-1,3-thiazol-2-yl]imino}piperidin-1-yl]ethanone]
